Measurements reported in patent publication US10702515B2, “Compositions containing aromatic aldehydes and their use in treatments” (Allergan, Inc., priority 2001, dated 2020).

Experiments:
IL-1 induction of PGE-2 = test: IL-1 induced PGE-2 in human skin fibroblasts (ELISA); assay type: cell-based; conditions: for inhibition at 100 µM: Example 3 (FIG. 4A); for inhibition at 50 µM: Example 3 (FIG. 4A/4B); for IL-1 induction of PGE-2 blocked: Example 2 dose-response (FIG. 3)
Method: (§1) For this experiment, human skin fibroblasts were seeded into 12 well culture dishes, at a density of 80,000 cells/well in tissue culture medium and left overnight to attach to the dish. The next day, medium was removed and replaced with fresh medium containing either 1% ethanol as a diluent control, IL-1 at a concentration of 500 picograms/ml, or IL-1 plus 4-EB at either 250 μM or 500 μM. Cells were incubated for an additional 24 hours and at this time, the medium was removed and assayed by ELISA for the presence of PGE-2 the culture medium.
Subsequent studies were carried out to determine the dose-response of human skin fibroblasts to 4-EB. […] The results of the study are provided graphically in FIG. 3.
as §1, with “culture dishes” for “culture dishes,”, “plus one of the compounds under investigation” for “plus 4-EB”, “at a concentration of 1, 10, 50” for “at either 250 μM”, “or 100” for “or 500”, “PGE-2 in” for “PGE-2”

[1] = test system: TPA-induced PGE2 expression in keratinocytes; test: TPA induced PGE-2 in human skin keratinocytes (ELISA); assay type: cell-based; conditions: Keratinocyte, Example 4 (FIG. 5), TPA 32 nM, read-out: percent inhibition of TPA induced PGE-2
Method: as §1, with “culture dishes” for “culture dishes,”, “plus one of the compounds under investigation” for “plus 4-EB”, “at a concentration of 1, 10, 50” for “at either 250 μM”, “or 100” for “or 500”, “PGE-2 in” for “PGE-2”
Similar in vitro studies as those described in Example 3 were run using human skin keratinocytes. The experimental set up was the same as described for Example 3 but replacing IL-1 with tetradecanoyl phorbol acetate (TPA) at a concentration of 32 nM as the agonist. The compounds tested were 2-ethoxybenzaldehyde (2-EB) and 3-ethoxybenzaldehyde (3-EB) and 4-ethoxybenzaldehyde (4-EB) in concentrations of either 10, 50, or 100 μM.

[2] = Franz cell percutaneous absorption analysis; assay type: in vitro ADME, human; conditions: from 1.0% 4-EB lotion; 24 hour period
Method: This lotion was then tested by Franz cell percutaneous absorption analysis to determine how much 4-EB could penetrate human skin over a 24 hour period. The lotion formulation above provided a flux rate of 4-EB through human skin of 30-50 micrograms/hour.

[3] = Homo sapiens, Skin fibroblast, 100 μM, IL-1 500 picograms/ml, 24 hours, read-out: Percent inhibition of IL-1 induced PGE-2
[4] = Homo sapiens, Skin fibroblast, 50 μM, IL-1 500 picograms/ml, 24 hours, read-out: Percent inhibition of IL-1 induced PGE-2

Row | Structure (SMILES) | inhibition at 100 µM (IL-1 induction of PGE-2; [3]) | inhibition at 50 µM (IL-1 induction of PGE-2; [4]) | inhibition at 10 µM ([1]; 10 μM) | inhibition at 50 µM [1] | inhibition at 100 µM [1] | inhibition of the IL-1 induction of PGE-2 (IL-1 induction of PGE-2; Example 1, 250 μM or 500 μM, IL-1 500 picograms/ml, 24 hours) | IL-1 induction of PGE-2 blocked (IL-1 induction of PGE-2; 10 μM) | IL-1 induction of PGE-2 blocked (IL-1 induction of PGE-2; 50 μM) | IL-1 induction of PGE-2 blocked (IL-1 induction of PGE-2; 100 μM) | flux rate of 4-EB through human skin [2] | inhibition of the IL-1 induced production of PGE-2 (in words) (IL-1 induction of PGE-2; Example 3, 10 or 50 μM) | inhibition at 10 µM (IL-1 induction of PGE-2; Homo sapiens, Skin fibroblast, Example 3 (FIG. 4B), 10 μM, IL-1 500 picograms/ml, 24 hours, read-out: Percent inhibition of IL-1 induced PGE-2)
1 | CCOc1ccccc1C=O [2-EB, 2-ethoxybenzaldehyde] | 82.9% | 58.9% | 55.2% | 76.6% | 83% |  |  |  |  |  |  | 
2 | CCOc1cccc(C=O)c1 [3-EB, 3-ethoxybenzaldehyde] | 41.2% | 42.6% |  | 57.7% | 76.7% |  |  |  |  |  |  | 
3 | CCOc1ccc(C=O)cc1 [4-EB, 4-ethoxybenzaldehyde] | 81.5% |  |  | 79.9% | 94.9% | complete inhibition | 35% | 82% | completely blocked | 30-50 micrograms/hour |  | 
4 | COc1ccc(C=O)cc1 [4-MB, 4-methoxybenzaldehyde] |  | 13.6% |  |  |  |  |  |  |  |  | did not appear to inhibit | 16.2%
